{"source": "ChEMBL document CHEMBL1201862", "about": "“PubChem BioAssay data set” (2004)", "key": {"[1]": {"molecular_target": "T1, Neuropeptide Y receptor type 1 (Homo sapiens, UniProt P25929)", "T1 sequence (P25929 whole entry)": "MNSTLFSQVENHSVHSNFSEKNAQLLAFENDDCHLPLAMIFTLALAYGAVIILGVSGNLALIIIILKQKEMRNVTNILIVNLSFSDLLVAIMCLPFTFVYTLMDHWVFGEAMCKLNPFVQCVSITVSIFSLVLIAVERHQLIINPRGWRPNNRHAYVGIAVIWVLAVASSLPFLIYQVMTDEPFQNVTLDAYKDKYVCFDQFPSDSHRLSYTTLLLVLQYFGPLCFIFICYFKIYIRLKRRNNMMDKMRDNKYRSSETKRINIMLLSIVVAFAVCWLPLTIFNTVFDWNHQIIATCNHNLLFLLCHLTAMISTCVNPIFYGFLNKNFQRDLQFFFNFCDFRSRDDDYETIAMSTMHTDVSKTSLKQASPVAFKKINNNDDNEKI", "experiment": "NPY-Y1 receptor antagonist potency, dose response, cell-based (AID 1277)", "assay_type": "functional"}, "[2]": {"molecular_target": "T2, Neuropeptide Y receptor type 2 (Homo sapiens, UniProt P49146)", "T2 sequence (P49146 whole entry)": "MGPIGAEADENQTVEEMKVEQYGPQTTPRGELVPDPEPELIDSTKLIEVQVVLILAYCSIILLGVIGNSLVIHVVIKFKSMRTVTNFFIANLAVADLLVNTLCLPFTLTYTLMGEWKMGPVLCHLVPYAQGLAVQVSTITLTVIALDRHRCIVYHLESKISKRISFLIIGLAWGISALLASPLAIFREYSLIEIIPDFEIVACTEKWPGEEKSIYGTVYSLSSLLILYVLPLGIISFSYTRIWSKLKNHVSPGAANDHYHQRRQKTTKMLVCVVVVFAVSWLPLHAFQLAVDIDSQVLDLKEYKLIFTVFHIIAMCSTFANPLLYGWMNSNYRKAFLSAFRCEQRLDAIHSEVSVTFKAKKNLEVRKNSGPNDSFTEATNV", "experiment": "NPY-Y2 antagonist potency, selectivity check, dose response, counter-screen for NPY-Y1 antagonist project, cell-based (AID 1278)", "assay_type": "functional"}, "[3]": {"molecular_target": "Sphingosine 1-phosphate receptor 3 (Homo sapiens, UniProt Q99500)", "sequence (Q99500 whole entry)": "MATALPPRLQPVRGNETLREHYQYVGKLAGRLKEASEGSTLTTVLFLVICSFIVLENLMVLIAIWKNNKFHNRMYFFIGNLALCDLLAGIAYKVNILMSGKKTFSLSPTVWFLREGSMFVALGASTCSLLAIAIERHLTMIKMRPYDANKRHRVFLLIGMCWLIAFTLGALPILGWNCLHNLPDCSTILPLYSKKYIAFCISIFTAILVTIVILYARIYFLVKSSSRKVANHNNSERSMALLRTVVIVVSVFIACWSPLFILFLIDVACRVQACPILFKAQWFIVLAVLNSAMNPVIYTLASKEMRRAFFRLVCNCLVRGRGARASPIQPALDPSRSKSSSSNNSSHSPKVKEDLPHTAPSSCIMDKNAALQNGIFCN", "experiment": "Dose response cell-based high throughput screening assay for antagonists of the Sphingosine 1-Phosphate Receptor 3 (S1P3). [Related pubchem assays: 1429, 485 ]", "assay_type": "functional"}, "[4]": {"experiment": "MC4R antagonists, dose response, counter-screen for LGR2 antagonist project, cell-based, plate reader, cherry pick (AID 743444);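 note: transfected HEK 293 cells stimulated with alpha-MSH peptide; potency of inhibitors of the alpha-MSH evoked signal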", "assay_type": "functional"}, "[5]": {"experiment": "LGR2 antagonists, dose response, cell-based, HEK293, CRE-luciferase reporter, cherry pick, set 2 (AID 743343);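 note: transfected cells were stimulated with diluted bursicon conditioned medium after compound addition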", "assay_type": "functional"}, "[6]": {"experiment": "HepG2 cell cytotoxicity, dose response, cytotoxicity control, plate reader, cherry-pick, antagonist series (AID 743416)", "assay_type": "functional, cell-based"}, "Streptococcus": {"tested_on": "Streptococcus", "experiment": "Group A Streptococcus viability loss, dose response, counter-screen for streptokinase expression inhibitor project, luminescence, BacTiterGlo (AID 1915);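 note: potency for reduction of bacterial viability or growth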", "assay_type": "functional, organism-based"}, "[7]": {"molecular_target": "5-hydroxytryptamine receptor 1E (Homo sapiens, UniProt P28566)", "sequence (P28566 whole entry)": "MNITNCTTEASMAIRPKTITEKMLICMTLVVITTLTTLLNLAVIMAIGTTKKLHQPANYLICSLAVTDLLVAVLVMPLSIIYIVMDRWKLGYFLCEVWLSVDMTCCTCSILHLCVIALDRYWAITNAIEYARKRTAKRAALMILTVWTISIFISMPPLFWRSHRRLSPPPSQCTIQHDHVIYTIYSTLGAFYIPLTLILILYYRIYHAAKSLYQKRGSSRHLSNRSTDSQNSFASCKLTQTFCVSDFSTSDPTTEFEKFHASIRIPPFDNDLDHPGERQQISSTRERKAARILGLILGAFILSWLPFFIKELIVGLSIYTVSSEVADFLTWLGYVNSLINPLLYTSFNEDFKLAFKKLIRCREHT", "experiment": "Counterscreen assay for S1P3 antagonists: Dose response cell-based high throughput screening assay to identify antagonists of the 5-Hydroxytryptamine Receptor Subtype 1E (5HT1E). [Related pubchem assays: 1429, 485 ]", "assay_type": "functional"}, "[8]": {"tested_on": "Streptococcus sp. 'group A'", "experiment": "growth inhibition of control SK(-) GAS strain, dose response, counter-screen for streptokinase expression inhibitor project, luminescence, kanamycin, BacTiterGlo, confirmation (AID 1900)", "assay_type": "functional, organism-based"}, "[9]": {"experiment": "A549 cell cytotoxicity, dose response, cytotoxicity control, plate reader, cherry-pick, antagonist series (AID 743412)", "assay_type": "functional, cell-based"}, "Streptokinase A": {"molecular_target": "T3, Streptokinase A (Streptococcus pyogenes serotype M1, UniProt P10520)", "T3 sequence (P10520 whole entry)": "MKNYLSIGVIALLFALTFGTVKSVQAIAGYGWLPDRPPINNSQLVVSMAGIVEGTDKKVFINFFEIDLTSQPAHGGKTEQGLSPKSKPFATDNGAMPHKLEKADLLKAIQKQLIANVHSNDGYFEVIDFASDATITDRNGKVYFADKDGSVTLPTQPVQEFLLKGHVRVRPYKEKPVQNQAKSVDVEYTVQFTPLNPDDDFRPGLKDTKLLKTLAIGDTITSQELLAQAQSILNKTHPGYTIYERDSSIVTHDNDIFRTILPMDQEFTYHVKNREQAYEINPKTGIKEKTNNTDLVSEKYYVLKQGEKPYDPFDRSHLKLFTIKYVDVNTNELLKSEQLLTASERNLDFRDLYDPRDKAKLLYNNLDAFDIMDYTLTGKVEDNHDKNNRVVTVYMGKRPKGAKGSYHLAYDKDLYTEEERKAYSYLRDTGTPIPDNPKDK", "experiment": "S. pyogenes streptokinase expression inhibitors, potency, dose response, plasminogen activation absorbance, OD405 (AID 1914);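 note: secreted streptokinase activity via plasminogen activation per viability signal from cell pellet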", "assay_type": "functional, Streptococcus pyogenes M1 GAS"}, "[10]": {"experiment": "HEK293 cell cytotoxicity, dose response, cytotoxicity control, plate reader, cherry-picked samples (AID 743446)", "assay_type": "functional, cell-based"}, "Mucolipin-3": {"molecular_target": "Mucolipin-3 (Homo sapiens, UniProt Q8TDD5)", "sequence (Q8TDD5 whole entry)": "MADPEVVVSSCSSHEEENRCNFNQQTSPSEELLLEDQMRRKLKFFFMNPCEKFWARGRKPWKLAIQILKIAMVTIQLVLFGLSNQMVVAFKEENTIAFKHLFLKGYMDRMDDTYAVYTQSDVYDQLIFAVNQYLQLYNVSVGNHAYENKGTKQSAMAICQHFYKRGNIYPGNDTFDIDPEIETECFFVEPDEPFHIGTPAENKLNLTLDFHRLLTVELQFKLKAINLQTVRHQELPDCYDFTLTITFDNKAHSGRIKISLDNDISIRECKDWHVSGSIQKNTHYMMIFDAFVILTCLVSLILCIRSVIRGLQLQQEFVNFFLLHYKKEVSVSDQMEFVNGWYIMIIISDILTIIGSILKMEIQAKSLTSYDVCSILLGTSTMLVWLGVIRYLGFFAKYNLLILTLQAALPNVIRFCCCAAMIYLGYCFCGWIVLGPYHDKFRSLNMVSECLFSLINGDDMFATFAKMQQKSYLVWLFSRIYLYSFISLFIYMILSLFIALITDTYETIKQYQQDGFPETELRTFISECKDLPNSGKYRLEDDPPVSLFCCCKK", "experiment": "Dose response cell-based high-throughput screening assay for agonists of the transient receptor potential channel ML3 (TRPML3). [Related pubchem assays: 1526, 1424, 1448 ]", "assay_type": "functional"}, "Ion channel NompC": {"molecular_target": "Ion channel NompC (Danio rerio, UniProt Q7T1G6)", "sequence (Q7T1G6 whole entry)": "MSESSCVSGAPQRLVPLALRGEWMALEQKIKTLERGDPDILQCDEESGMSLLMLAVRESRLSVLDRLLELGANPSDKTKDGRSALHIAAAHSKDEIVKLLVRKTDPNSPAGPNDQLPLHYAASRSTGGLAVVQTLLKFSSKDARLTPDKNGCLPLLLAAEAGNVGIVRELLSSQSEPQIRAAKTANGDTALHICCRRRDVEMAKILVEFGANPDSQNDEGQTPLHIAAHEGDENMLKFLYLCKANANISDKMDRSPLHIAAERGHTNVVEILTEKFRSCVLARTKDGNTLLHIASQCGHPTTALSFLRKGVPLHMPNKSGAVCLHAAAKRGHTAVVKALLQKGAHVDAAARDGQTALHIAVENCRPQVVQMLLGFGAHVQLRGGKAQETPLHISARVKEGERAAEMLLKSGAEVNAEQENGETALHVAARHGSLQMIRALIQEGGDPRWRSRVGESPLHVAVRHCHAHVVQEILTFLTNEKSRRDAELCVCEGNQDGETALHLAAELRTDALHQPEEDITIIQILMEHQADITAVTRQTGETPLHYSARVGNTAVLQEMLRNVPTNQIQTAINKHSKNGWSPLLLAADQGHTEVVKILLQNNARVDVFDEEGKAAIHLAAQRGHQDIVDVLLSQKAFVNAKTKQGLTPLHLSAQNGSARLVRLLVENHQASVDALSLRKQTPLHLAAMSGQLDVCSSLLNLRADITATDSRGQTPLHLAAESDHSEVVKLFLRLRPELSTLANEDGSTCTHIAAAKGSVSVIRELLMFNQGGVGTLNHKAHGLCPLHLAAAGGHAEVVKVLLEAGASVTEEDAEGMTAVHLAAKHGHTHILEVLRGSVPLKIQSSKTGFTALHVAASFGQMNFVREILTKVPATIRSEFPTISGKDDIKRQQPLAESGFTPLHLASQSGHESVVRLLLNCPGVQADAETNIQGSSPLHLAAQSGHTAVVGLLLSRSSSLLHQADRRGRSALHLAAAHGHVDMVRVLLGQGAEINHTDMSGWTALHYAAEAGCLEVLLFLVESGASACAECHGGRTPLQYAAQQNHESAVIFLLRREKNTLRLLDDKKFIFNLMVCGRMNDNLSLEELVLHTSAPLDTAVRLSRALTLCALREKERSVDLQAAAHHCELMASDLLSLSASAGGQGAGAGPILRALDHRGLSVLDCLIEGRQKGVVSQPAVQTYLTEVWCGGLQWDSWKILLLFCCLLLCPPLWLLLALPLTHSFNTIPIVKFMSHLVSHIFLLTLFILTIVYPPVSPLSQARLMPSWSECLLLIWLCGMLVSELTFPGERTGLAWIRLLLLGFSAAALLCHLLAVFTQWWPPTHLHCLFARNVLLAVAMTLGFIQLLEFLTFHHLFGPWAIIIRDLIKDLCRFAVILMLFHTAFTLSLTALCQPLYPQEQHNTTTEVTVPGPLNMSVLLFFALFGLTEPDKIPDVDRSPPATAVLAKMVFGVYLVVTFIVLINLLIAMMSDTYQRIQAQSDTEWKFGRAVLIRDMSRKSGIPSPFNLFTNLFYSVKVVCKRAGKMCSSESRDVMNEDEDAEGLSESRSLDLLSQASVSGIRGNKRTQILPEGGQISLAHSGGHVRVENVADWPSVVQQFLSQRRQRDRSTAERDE", "experiment": "Fluorescence counterscreen assay for TRPML3 agonists: dose response cell-based high-throughput screening assay to identify agonists of the transient receptor potential channel N1 (TRPN1). [Related pubchem assays: 1526, 1424, 1448 ]", "assay_type": "functional"}, "HT-1080": {"tested_on": "HT-1080", "experiment": "cytotoxicity in HT1080 fibrosarcoma cells, cell-based, fluorescence readout (AID 620)", "assay_type": "functional", "conditions": "Homo sapiens"}, "[11]": {"molecular_target": "Luciferin 4-monooxygenase (Photinus pyralis, UniProt P08659)", "sequence (P08659 whole entry)": "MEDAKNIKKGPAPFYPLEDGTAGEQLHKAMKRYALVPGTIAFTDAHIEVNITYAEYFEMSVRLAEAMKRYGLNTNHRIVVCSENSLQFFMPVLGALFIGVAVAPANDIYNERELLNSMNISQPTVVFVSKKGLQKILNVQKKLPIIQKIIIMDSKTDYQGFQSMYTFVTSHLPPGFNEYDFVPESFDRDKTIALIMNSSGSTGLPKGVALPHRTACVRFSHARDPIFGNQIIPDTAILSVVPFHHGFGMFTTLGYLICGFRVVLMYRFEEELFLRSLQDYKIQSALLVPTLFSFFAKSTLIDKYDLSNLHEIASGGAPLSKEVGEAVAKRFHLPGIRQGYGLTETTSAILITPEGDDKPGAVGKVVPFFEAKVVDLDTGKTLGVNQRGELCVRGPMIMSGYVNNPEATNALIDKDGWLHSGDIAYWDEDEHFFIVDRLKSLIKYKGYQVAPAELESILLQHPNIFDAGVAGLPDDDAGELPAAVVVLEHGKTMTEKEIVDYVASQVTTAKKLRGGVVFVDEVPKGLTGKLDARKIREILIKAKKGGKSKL", "experiment": "Counter Screen for Luciferase-based Assay Positives. [Related pubchem assays: 620, 618, 411 ]"}, "[12]": {"molecular_target": "Mothers against decapentaplegic homolog 3 (Homo sapiens, UniProt P84022)", "sequence (P84022 whole entry)": "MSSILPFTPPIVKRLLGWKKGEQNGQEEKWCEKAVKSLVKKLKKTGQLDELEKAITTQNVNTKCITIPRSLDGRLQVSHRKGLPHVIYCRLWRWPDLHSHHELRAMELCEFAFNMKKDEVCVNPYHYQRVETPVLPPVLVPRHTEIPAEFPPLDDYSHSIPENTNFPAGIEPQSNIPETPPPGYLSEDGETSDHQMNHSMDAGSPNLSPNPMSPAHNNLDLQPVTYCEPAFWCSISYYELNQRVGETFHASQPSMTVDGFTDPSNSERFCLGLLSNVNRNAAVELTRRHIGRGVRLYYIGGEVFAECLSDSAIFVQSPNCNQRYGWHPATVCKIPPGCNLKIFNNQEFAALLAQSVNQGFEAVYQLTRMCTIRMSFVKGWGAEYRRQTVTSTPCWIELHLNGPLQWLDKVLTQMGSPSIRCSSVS", "experiment": "Smad3 binding inhibitors, lysate ELISA, dose response, cell lysate, secondary confirmation, chemiluminescent ELISA, HEK293 lysate (AID 1058)", "assay_type": "functional"}}, "note": "The source made the active and inactive calls.", "data": [{"smiles": "COC(=O)[C@@]1(Cc2ccc(F)cc2)[C@H]2c3cc(C(=O)N4CCCC4)n(Cc4ccc(C(F)(F)F)nc4)c3C[C@H]2CN1C(=O)c1ccccc1", "values": [{"measurement": "IC50", "setting": "[1]", "value": "> 35 µM (not active)"}, {"measurement": "IC50", "setting": "[2]", "value": "> 35 µM (not active)"}]}, {"smiles": "Cc1cccc(Cn2nc(C(C)(C)C)cc2C(=O)Nc2ccc(F)cc2)c1", "values": [{"measurement": "IC50", "setting": "[3]", "value": "5.22 µM (active)"}, {"measurement": "AC50", "setting": "[4]", "value": "26.4 µM (active)"}, {"measurement": "AC50", "setting": "[5]", "value": "14.6 µM (active)"}, {"measurement": "AC50", "setting": "[6]", "value": "> 52 µM (inactive)"}, {"measurement": "EC50", "setting": "Streptococcus", "value": "16.3 µM (active)"}, {"measurement": "IC50", "setting": "[7]", "value": "3.86 µM (active)"}, {"measurement": "EC50", "setting": "[8]", "value": "7.66 µM (active)"}, {"measurement": "AC50", "setting": "[9]", "value": "26.5 µM (active)"}, {"measurement": "EC50", "setting": "Streptokinase A", "value": "1.9 µM (active)"}, {"measurement": "AC50", "setting": "[10]", "value": "8.76 µM (active)"}]}, {"smiles": "Cc1cc(C)c(C(=O)c2ccc(C(=O)N(C(C)C)C(C)C)cc2)c(C)c1", "values": [{"measurement": "EC50", "setting": "Mucolipin-3", "value": "2.24 µM (active)"}, {"measurement": "EC50", "setting": "Ion channel NompC", "value": "> 29.9 µM (not active)"}]}, {"smiles": "Cc1nn2cc(-c3ccccc3)nc2s1", "values": [{"measurement": "EC50", "setting": "HT-1080", "value": "> 50 µM (not active)"}, {"measurement": "EC50", "setting": "[11]", "value": "700 nM (active)"}]}, {"smiles": "O=C1OC2(c3ccc(O)c(O)c3Oc3c2ccc(O)c3O)c2c(Cl)c(Cl)c(Cl)c(Cl)c21", "values": [{"measurement": "IC50", "setting": "[12]", "value": "12.4 µM (active)"}]}]}
